Patent US8497370B2, “Processes for preparing amine salts of sildenafil-analogues and use thereof” (Kaohsiung Medical University, priority 2010, dated 2013)

How the values were obtained:
Type in all cases: in vivo
C57BL/6J mice = assay: The lipid-lowering effect in C57BL/6J mice (high-fat diet); conditions: HFD C57BL/6J mice, after 21 days, six mice per group
Method: 1. The Lipid-Lowering Effect in C57BL/6J Mice
8-week C57BL/6J mice are divided into standard diet (STD) group and the high-fat diet (HFD) group. In the HFD group, the Simvastatin (5 mg/kg), Sildenafil-Atorvastatinic acid complex salt, Sildenafil-Rosuvastatinic acid complex salt, Sildenafil-Simvastatinic acid complex salt (2.5 mg/kg) are separately administered orally. After 21 days, the amounts (mg/d1) of the triglyceride (TG), the total cholesterol (Tot.-C), the high density lipoprotein cholesterol (HDL-C), and the low density lipoprotein cholesterol (LDL-C) of six mice for each group are measured as shown in Tables 2.

TGF-β = assay: Bleomycin (BM)-induced lung fibrosis in mice, TGF-β expression in tracheal irrigation solution by EIA; conditions: 60 mg/kg BM inhalation, *P < 0.05 vs control group
Method: 3. Sildenafil-Simvastatinic Acid Complex Salts Inhibit the Lung Fibrosis in Mice Induced by Bleomycin (BM) Mediated Via TGF-β Expression in Lung The increased amount of the synthetic collagen and the generation of the macrophage in alveolus may facilitate the formulation of transforming growth factor beta (TGF-β), and the expression of TGF-β is looked as a biomarker of the lung fibrosis. The simvastatin (5 mg/kg) and Sildenafil-Simvastatinic acid complex salts (2.5 mg/kg) are orally administered to the mice for inhibiting the lung fibrosis induced by TGF-β expression in tracheal irrigation solution that resulted from 60 mg/kg BM inhalation (Table 4). The state of the TGF-β expression in the irrigation solution is measured by the enzyme immunoassay (EIA).

[1] = system: male Wistar rats treated with MCT; assay: Monocrotaline (MCT)-induced pulmonary arterial hypertension in rats, pulmonary artery blood pressure; conditions: for PABP: MCT (60 mg, intracutaneously)-treated male Wistar rats, 2.5 mg/kg/day p.o., MCT alone 25 ± 2.3, control 11 ± 1.4; for effect on pulmonary artery blood pressure (PABP), in words: MCT-treated male Wistar rats, 2.5 mg/kg orally every day
Text: 2. The Monocrotaline (MCT)-Treated Rats Show the Decreased Pulmonary Aterial Hypertension
Pulmonary aterial hypertension in MCT-treated rats is caused on day 21 after the intracutaneously injection.

Compound | HDL-C (C57BL/6J mice; 5 mg/kg orally) [mg/d1] | LDL-C (C57BL/6J mice; 5 mg/kg orally) [mg/d1] | TG (C57BL/6J mice; 5 mg/kg orally) [mg/d1] | Tot.-C (C57BL/6J mice; 5 mg/kg orally) [mg/d1] | Changed amount of the lung TGF-β (TGF-β; 5 mg/kg orally) [%*] | HDL-C (C57BL/6J mice; 2.5 mg/kg orally) [mg/d1] | LDL-C (C57BL/6J mice; 2.5 mg/kg orally) [mg/d1] | TG (C57BL/6J mice; 2.5 mg/kg orally) [mg/d1] | Tot.-C (C57BL/6J mice; 2.5 mg/kg orally) [mg/d1] | PABP [1] [mmHg] | effect on pulmonary artery blood pressure (PABP), in words [1] | Changed amount of the lung TGF-β (TGF-β; 2.5 mg/kg orally) [%*]
CCC(C)(C)C(=O)O[C@H]1C[C@@H](C)C=C2C=C[C@H](C)[C@H](CC[C@@H]3C[C@@H](O)CC(=O)O3)[C@H]21 [Simvastatin, reference compound] | 103.18 ± 2.5 | 15.3 ± 1.3 | 82.67 ± 6.3 | 133.67 ± 4.3 | 40 ± 4.3 |  |  |  |  |  |  | 
Sildenafil-Atorvastatinic acid complex salt |  |  |  |  |  | 97.6 ± 2.8 | 16.8 ± 1.8 | 79.2 ± 4.6 | 130.7 ± 1.7 |  |  | 
Sildenafil-Rosuvastatinic acid complex salt |  |  |  |  |  | 103.4 ± 1.5 | 15.2 ± 1.7 | 83.2 ± 5.3 | 131.7 ± 1.6 |  |  | 
Sildenafil-Simvastatinic acid complex salt |  |  |  |  |  | 102.4 ± 2.3 | 17.3 ± 1.4 | 81.2 ± 4.4 | 129.7 ± 1.4 | 12 ± 1.5 | decreasing the pulmonary artery blood pressure | 43 ± 1.8
Sildenafil-γ-Polyglutamate complex |  |  |  |  |  |  |  |  |  | 11 ± 0.8 | decreasing the pulmonary artery blood pressure | 
